The record followed here is ChEMBL document CHEMBL1131909, “Synthesis and biological activities of position one and three transposed analogs of the opioid peptide YKFA” (Bioorg Med Chem Lett, 1999).

The IC50 is the midpoint of a concentration-inhibition curve. Lower therefore signals greater potency in that assay. Broadly, the Ki is a measure of affinity in units of concentration, obtained from inhibition or displacement. A low value points to tighter binding.

SMILES strings stand for the structures.

For experiment [1], the target named is Delta-type opioid receptor (Mus musculus, UniProt P32300). The experiment in a line: In vitro delta opioid activity was determined by its ability to inhibit the electrically induced contractions of smooth muscle preparations in mouse vas deferens (MVD). The format is functional, tissue-based.
Experiment [2] addresses T1, Mu-type opioid receptor (Cavia porcellus, UniProt P97266). The experiment in a line: In vitro mu opioid activity was determined by its ability to inhibit the electrically induced contractions of smooth muscle preparations in guinea pig ileum (GPI). The format is functional, tissue-based.
Experiment [3] addresses Mu-type opioid receptor (Homo sapiens, UniProt P35372). The experiment in a line: Compound was tested for binding affinity against mu opioid receptor binding assay.
Experiment [4] addresses T1, Mu-type opioid receptor. The experiment in a line: Compound was tested for its ability to activate mu opioid receptor in GPI bioassay.
Experiment [5] deals with T1, Mu-type opioid receptor. The experiment in a line: Compound was tested for moderate potency against mu opioid receptor in guinea pig ileum. The format is tissue-based.

Sequence of Delta-type opioid receptor (P32300 whole entry): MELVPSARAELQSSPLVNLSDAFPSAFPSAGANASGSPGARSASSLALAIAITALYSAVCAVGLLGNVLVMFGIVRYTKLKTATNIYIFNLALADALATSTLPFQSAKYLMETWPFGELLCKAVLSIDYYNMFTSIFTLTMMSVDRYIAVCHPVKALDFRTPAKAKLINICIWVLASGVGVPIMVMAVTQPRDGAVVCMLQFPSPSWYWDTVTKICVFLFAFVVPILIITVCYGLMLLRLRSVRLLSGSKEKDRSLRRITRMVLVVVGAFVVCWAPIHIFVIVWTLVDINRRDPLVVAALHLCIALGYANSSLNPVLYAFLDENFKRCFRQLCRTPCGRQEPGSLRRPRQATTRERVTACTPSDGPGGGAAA
T1 sequence (P97266 whole entry): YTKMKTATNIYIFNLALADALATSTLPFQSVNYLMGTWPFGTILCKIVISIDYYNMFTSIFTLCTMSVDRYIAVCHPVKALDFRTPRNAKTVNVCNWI
Sequence of Mu-type opioid receptor (Homo sapiens, UniProt P35372) (P35372 whole entry): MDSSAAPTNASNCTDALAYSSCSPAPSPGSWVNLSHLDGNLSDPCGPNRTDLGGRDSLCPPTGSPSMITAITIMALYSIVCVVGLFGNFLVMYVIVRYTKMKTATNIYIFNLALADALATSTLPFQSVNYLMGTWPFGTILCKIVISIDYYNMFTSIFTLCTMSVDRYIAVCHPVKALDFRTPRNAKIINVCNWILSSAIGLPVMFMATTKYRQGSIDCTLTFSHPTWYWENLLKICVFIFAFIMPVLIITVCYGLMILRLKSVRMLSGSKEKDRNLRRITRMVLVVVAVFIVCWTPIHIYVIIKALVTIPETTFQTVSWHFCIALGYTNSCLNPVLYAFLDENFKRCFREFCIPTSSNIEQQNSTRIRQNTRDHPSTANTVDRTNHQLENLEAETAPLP

`CC1NC(=O)[C@H](Cc2ccc(O)cc2)NC(=O)[C@H](NC(=O)[C@@H](N)Cc2ccccc2)CCCCNC1=O` (single isomer, unassigned): the IC50 in experiment [1] came out at 367 nM; at Mu-type opioid receptor [2], 30.4 nM.

At Mu-type opioid receptor [3], `CC1(C)SSC[C@@H](NC(=O)[C@@H](N)Cc2ccccc2)C(=O)N[C@@H](Cc2ccccc2)C(=O)N[C@H]1C(N)=O` showed a Ki of 13.6 nM. At Mu-type opioid receptor [4], the midpoint of inhibition, the IC50, lay at 9.1 nM.

As for `NC(=O)[C@H]1CSSC[C@@H](NC(=O)[C@@H](N)Cc2ccccc2)C(=O)NCC(=O)N[C@@H](Cc2ccc([N+](=O)[O-])cc2)C(=O)N1`, on Mu-type opioid receptor [5], inhibition was half-maximal at 13 nM (IC50).

`N[C@H](Cc1ccccc1)C(=O)N[C@@H]1CCCCNC(=O)[C@H](Cc2cc3ccccc3[nH]2)NC(=O)[C@H](Cc2ccc(O)cc2)NC1=O`: the IC50 in experiment [1] turned out to be 8130 nM; on Mu-type opioid receptor [2], 627 nM.

Turning to `NC(=O)[C@H]1CSSC[C@@H](NC(=O)[C@@H](N)Cc2ccccc2)C(=O)NCC(=O)N[C@@H](Cc2ccccc2)C(=O)N1`, on Mu-type opioid receptor [5], the 50% inhibitory concentration (IC50) was 42 nM.

For the compound `CC1NC(=O)[C@H](Cc2ccccc2)NC(=O)[C@H](NC(=O)[C@@H](N)Cc2ccc(O)cc2)CCCCNC1=O` (single isomer, unassigned), the figures for the IC50 (in experiment [1]; on Mu-type opioid receptor [2]) were 0.54 nM and 0.11 nM, respectively.

In the case of `N[C@@H](Cc1ccccc1)C(=O)N[C@@H]1CCCCNC(=O)[C@H](Cc2cc3ccccc3[nH]2)NC(=O)[C@H](Cc2ccc(O)cc2)NC1=O`, the IC50 turned out to be 228 nM in experiment [1] and 17.7 nM at Mu-type opioid receptor [2].

As for `CC1NC(=O)[C@H](Cc2ccc(O)cc2)NC(=O)[C@H](NC(=O)[C@H](N)Cc2ccccc2)CCCCNC1=O` (single isomer, unassigned), the IC50 is 9330 nM in experiment [1] and 1830 nM at Mu-type opioid receptor [2].

`CC1(C)SSC[C@@H](NC(=O)[C@@H](N)Cc2ccc(O)cc2)C(=O)N[C@@H](Cc2ccccc2)C(=O)N[C@H]1C(N)=O` registered an inhibition constant (Ki) at Mu-type opioid receptor [3] of 0.29 nM.
